According to publication PMC9151520 (Archives of Toxicology, 2022):
Where “and” joins values, the source holds several entries; their conditions need not be identical. Equal values may be shown once. Read-outs that look alike come from different tables or passages of the source.

Experiments:
[1] = tested on: p53 signaling (p53RE-bla HCT-116 cells)
[2] = tested on: p53 signaling (p53RE-bla HCT-116 cells); test: cells; type: cell-based
[3] = tested on: p53 signaling (p53RE-bla HCT-116 cells); remark: listed apart in the source
[4] = read-out: p53 activation EC50, cherry pick confirmation
[5] = read-out: p53 activation EC50, primary screening
[6] = Homo sapiens, HCT-116, read-out: p53 activation efficacy, primary screening

Structure (SMILES)	p53 activation EC50, cherry pick confirmation [1]	p53 activation EC50, primary screening [1]	p53 activation efficacy, cherry pick confirmation [1]	p53 activation efficacy, primary screening [1]	p53 activation efficacy, cherry pick confirmation [2]	p53 activation efficacy, primary screening [2]	EC50 [2, 4] [µM]	EC50 [2, 5] [µM]	p53 activation EC50, cherry pick confirmation [3]	p53 activation EC50, primary screening [3]	p53 activation efficacy, cherry pick confirmation [3]	p53 activation efficacy, primary screening [3]	Viability EC50, cherry pick confirmation (p53RE-bla HCT-116 cells)	Viability EC50, primary screening (p53RE-bla HCT-116 cells)	Viability efficacy, cherry pick confirmation (p53RE-bla HCT-116 cells)	Viability efficacy, primary screening (p53RE-bla HCT-116 cells)	Emax [2, 6] [%]	further results
CC(=O)Nc1ccn(C2COC(COC(=O)c3ccccc3)O2)c(=O)n1 (centres unmarked)	inactive	inactive	inactive	inactive	43.9867	52.8473	9.43	2.5	inactive	inactive	inactive	inactive	inactive	inactive	inactive	inactive		
CC/C(=C(/CC)c1ccc(O)cc1)c1ccc(O)cc1 [Diethylstilbestrol]	inactive	inactive	inactive	inactive	inactive				inactive	inactive	inactive	inactive	inactive	inactive	inactive		42.5	p53 activation EC50, cherry pick confirmation [2]: inactive
Clc1ccc2cc3ccccc3cc2c1 [2-Chloroanthracene]																		p53 activation EC50, RLM [1]: inactive; EC50 ([1]; read-out: p53 activation EC50, RLM): 50.1 µM; p53 activation Efficacy, No MS [2]: 70.691% and 61.8737%; EC50 ([2]; read-out: p53 activation EC50, No MS): 35.6 µM; p53 activation EC50, HLM [3]: inactive; EC50 ([3]; read-out: p53 activation EC50, HLM): 23.2 µM; Viability EC50, HLM (p53RE-bla HCT-116 cells): inactive; Viability EC50, No MS (p53RE-bla HCT-116 cells): inactive; Viability EC50, RLM (p53RE-bla HCT-116 cells): inactive; Viability Efficacy, HLM (p53RE-bla HCT-116 cells): inactive; Viability Efficacy, No MS (p53RE-bla HCT-116 cells): inactive; Viability Efficacy, RLM (p53RE-bla HCT-116 cells): inactive
CC1=C(C(=O)Nc2ccccc2)S(=O)(=O)CCO1 [Oxycarboxin]	inactive	inactive	inactive	inactive					inactive	inactive	inactive	inactive	inactive	inactive	inactive	inactive	76	EC50 ([2]; Homo sapiens, HCT-116, read-out: p53 activation EC50, cherry pick confirmation): 36.4 µM; EC50 ([2]; Homo sapiens, HCT-116, read-out: p53 activation EC50, primary screening): 21.2 µM; Emax ([2]; Homo sapiens, HCT-116, read-out: p53 activation efficacy, cherry pick confirmation): 82.6%
Cl.Nc1ccc2cc3ccc(N)cc3nc2c1 [Proflavin hydrochloride]	inactive	inactive	inactive	inactive	356.887	211.641	3.65	2.9	inactive	inactive	inactive	inactive	inactive	inactive	inactive	inactive		
